Source: patent US20220162240A1, “MITOCHONDRIA-TARGETED ISOKETAL/ISOLEVUGLANDIN SCAVENGERS” (Vanderbilt University, priority 2019, published 2022)
“Also recorded” adds a separate entry of the source.

How the values were obtained:
[1] = tested on: intact mouse kidney mitochondria; test: Swelling and respiration of isolated mouse kidney mitochondria after acute isoLG or isoLG-PE exposure; conditions: for mPTP opening / mitochondrial swelling / inhibition of mitochondrial respiration: 1 μM; for inhibition of mitochondrial respiration: acute treatment of isolated mitochondria, 5 min, glutamate and malate, ADP 50 μM
Procedure: Intact mouse kidney mitochondria with glutamate and malate were incubated (5 min) with ethanol as vehicle, isoLG (1 μM) or isoLG-PE (1 μM) prior to addition of ADP (50 μM) and measurements of oxygen consumption. *P<0.001 vs Control, **P<0.03 vs isoLG.
Reactive isoLG produce protein-Lysine adducts and cytotoxic isoLG-phosphatidylethanolamine adduct (isoLG-PE) which can independently contribute to mitochondrial dysfunction. Indeed, acute treatment of isolated mitochondria with isoLG-PE inhibited respiration by 41% while similar dose of isoLG reduced respiration by 74% which support potential role of both isoLG-PE and isoLG protein-Lysine adducts in mitochondrial dysfunction.

[2] = tested on: Ang II-infused C57Bl/6J mice; test: Blood pressure (tail-cuff) in Ang II-induced hypertension, CypD blocker given after onset; type: in vivo; conditions: i.p. 10 mg/kg/day after onset of Ang II-induced hypertension
Procedure: (§1) FIG. 3A-3D is a set of graphs showing examples of targeting CypD in hypertension. Blood pressure in C57Bl/6J mice infused with saline (Sham), Ang II (0.7 mg/kg/day) or treated with CypD blocker Sanglifehrin A (SFA) after onset of Ang II-induced hypertension (Ang II+SFA). Blood pressure was measured by tail-cuff method (A). ^3Following 14 days of saline or Ang II infusion, mice were sacrificed for isolation of aorta to study mitochondrial […] using MitoSOX and HPLC or to study vasodilation. Results are mean±SEM (n=6-8). *P<0.01 vs Sham, **P<0.01 vs Ang II, ***P<0.01 vs Ang II+SFA (n=8).
(§2) One aspect of the present invention is targeting CypD after onset of hypertension. The present inventors implanted wild-type mice with osmotic pump containing Ang II (0.7 mg/kg/day) and started treatment with Sanglifehrin A after onset of Ang II-induced hypertension (FIG. 3A).

aorta = test: Vasodilatation of aorta from Ang II-infused mice treated with CypD blocker; type: in vivo; conditions: i.p. 10 mg/kg/day after onset of Ang II-induced hypertension
Procedure: as §1, §2

mitochondrial superoxide = test: Aortic mitochondrial superoxide (MitoSOX/HPLC) in Ang II-infused mice treated with CypD blocker; type: in vivo; conditions: i.p. 10 mg/kg/day after onset of Ang II-induced hypertension
Procedure: as §1, §2

[3] = tested on: human aortic endothelial cells (HAEC); test: Cardiolipin oxidation in HAEC incubated with Ang II plus TNFα (LC/MS); type: cell-based; conditions: 50 nM, Ang II + TNFα 24 hours
Procedure: (§3) Free radical oxidation of arachidonic acid produces highly reactive isolevuglandins (isoLG) which causes mitochondrial dysfunction by opening of the mitochondrial permeability transition pore (mPTP). […] The functional role of mitochondrial isoLG was tested in vivo using angiotensin II model of hypertension. C57Bl/6J mice were infused with angiotensin II (0.7 mg/kg/day) or saline (Sham) and received mito2HOBA in the drinking water (0.1 g/L). […] Decrease of NO is a hallmark of endothelial dysfunction in hypertension due to vascular oxidative stress.
(§4) Mitochondrial O2^• and cardiolipin oxidation (specific marker of mitochondrial dysfunction and oxidative stress) in cultured human aortic endothelial cells (HAEC) were incubated with Ang II and TNFα.

[4] = tested on: human aortic endothelial cells (HAEC); test: Mitochondrial superoxide in HAEC incubated with Ang II plus TNFα (MitoSOX/HPLC); type: cell-based
Procedure: as §3, §4

hypertension = conditions: background statement; cited from earlier work
[5] = acute exposure of isolated mitochondria

isolevuglandins [isoLG]
mitochondrial respiration [1, 5]: inhibits mitochondrial respiration | mPTP opening / mitochondrial swelling [1, 5]: induces CypD-dependent mPTP opening; also recorded: mitochondrial swelling | inhibition of mitochondrial respiration [1]: 74%

CC[C@H]1C[C@H](C)[C@@]2(NC1=O)O[C@@H](C[C@H](O)[C@@H](C)CC/C=C/C=C(\C)[C@@H]1C/C=C/C=C/[C@H](O)[C@H](C)[C@@H](O)[C@@H](CCC(C)=O)C(=O)N[C@@H](C(C)C)C(=O)N[C@@H](Cc3cccc(O)c3)C(=O)N3CCC[C@H](N3)C(=O)O1)[C@H](C)[C@H](O)[C@@H]2C [Sanglifehrin A]
blood pressure [2]: reduces blood pressure | vasodilatation (aorta): improves vasodilatation | mitochondrial superoxide production in aorta (mitochondrial superoxide): normalizes

isoLG-phosphatidylethanolamine adduct [isoLG-PE]
mPTP opening / mitochondrial swelling [1, 5]: mitochondrial swelling | inhibition of mitochondrial respiration [1]: 41%

NCc1ccccc1O [2HOBA, 2-hydroxybenzylamine, reference compound]
cardiolipin oxidation [3]: not effective | mitochondrial superoxide production / mitochondrial oxidative stress ([4]; 50 nM, Ang II + TNFα 24 hours, MitoSOX/HPLC): not effective | concentration required for protection similar to mito2HOBA (50 nM) against mitochondrial oxidative stress ([4]; Ang II + TNFα): much higher concentrations | endothelium-dependent relaxation in animal studies (hypertension): protects endothelium-dependent relaxation | hypertension in animal studies (hypertension): attenuates hypertension | inflammation in animal studies (hypertension): prevents inflammation
